Source: ChEMBL document CHEMBL1133767, “Novel nonsubstrate inhibitors of human thymidine phosphorylase, a potential target for tumor-dependent angiogenesis” (J Med Chem, 2000)
pIC50: −log10 of the molar value.

Key:
[1] = molecular target: T1, Thymidine phosphorylase (Homo sapiens) (UniProt P19971); assay: Percent inhibition by compound was measured on Human Thymidine Phosphorylase using 100 uM thymine
T1 sequence (whole entry): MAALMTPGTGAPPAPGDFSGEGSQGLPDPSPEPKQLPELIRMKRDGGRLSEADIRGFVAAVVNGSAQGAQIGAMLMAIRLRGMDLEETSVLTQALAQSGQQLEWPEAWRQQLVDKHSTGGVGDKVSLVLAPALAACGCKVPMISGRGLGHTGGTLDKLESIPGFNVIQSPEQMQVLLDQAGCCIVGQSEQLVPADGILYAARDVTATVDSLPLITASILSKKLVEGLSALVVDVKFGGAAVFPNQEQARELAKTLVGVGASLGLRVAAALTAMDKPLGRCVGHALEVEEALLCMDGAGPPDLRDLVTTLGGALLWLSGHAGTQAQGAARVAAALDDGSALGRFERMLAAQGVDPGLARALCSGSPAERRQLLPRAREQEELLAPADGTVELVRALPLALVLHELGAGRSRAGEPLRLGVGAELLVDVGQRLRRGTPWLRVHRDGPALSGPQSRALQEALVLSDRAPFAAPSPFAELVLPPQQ

Thymidine phosphorylase [2] = molecular target: T2, Thymidine phosphorylase (Homo sapiens, UniProt P19971); assay: Inhibition of catabolic activity of human thymidine phosphorylase
T2 sequence (P19971 whole entry): T1 sequence (whole entry)

Thymidine phosphorylase [3] = molecular target: T2, Thymidine phosphorylase; assay: Inhibition of anabolic activity of human thymidine phosphorylase

| inhibition [1] [%] | pIC50 (Thymidine phosphorylase [2]) | pIC50 (Thymidine phosphorylase [3]) | SMILES |
| --- | --- | --- | --- |
| 41 | – | – | Nc1cc(O)nc(O)n1 |
| – | < 3.70 | – | O=c1cc(NCc2ccccc2)[nH]c(=O)[nH]1 |
| – | 3.83 | 3.70 | Oc1cc(NCCc2ccccc2)nc(O)n1 |
